Series [1] in a line: Volatility of compounds measured by thermogravimetric analysis (TGA), rate of weight loss. The format is physicochemical. To be noted: estimates of volatility. From the text:
Briefly, the rate of weight loss measured in units of […]g/min can be used to determine vapor pressure as shown by the simplified equation: wherein, k is the intrinsic volatility and A is the surface area, Referring now to FIG. 2. A graph of weight loss as function of time for solid samples produces a linear curve; the slope of the curve is the rate of weight loss. When this method is used to measure the volatility of aqueous salt concentrates or liquid concentrates, the water or acetone present in the sample volatilizes before the sample of interest. The first linear loss region of the curve is the loss of water or acetone and the second linear region is characteristic of the sample of interest. In order to illustrate the difference in volatility between some of the compounds disclosed herein and the widely used herbicide dicamba, data from both the compounds and dicamba are presented Table 3 and in FIG. 1.

Series [2] concerns Conyza canadensis (L.) (ERICA). Put plainly: Postemergence herbicide evaluation, percent reduction in plant size vs untreated control, 21 days after treatment. The format is in vivo, Conyza canadensis (L.) (Horseweed). To be noted: Erigeron canadensis, post-emergence, 504 h, ERICA, postemergence, read-out: Control/Injury; for pest or weed control at 140 g/ha: rate 140 g ae/ha; for pest or weed control at 280 g/ha: rate 280 g ae/ha. The method in brief:
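Track-sprayer applications (187 L/ha, 276 kPa) of 140 or 280 g ae/ha, technical material dissolved in acetone/DMSO then diluted with crop oil and surfactant-containing solvent, to greenhouse Conyza canadensis at 2-8 leaves. After 21 days, size reduction relative to untreated plants was recorded; 3-4 randomized replicates.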

The subject of series [3] is Ambrosia artemisiifolia (AMBEL). Described as above. The series is classed as in vivo, Ambrosia artemisiifolia (common ragweed). To be noted: post-emergence, 504 h, AMBEL, postemergence, read-out: Control/Injury; for pest or weed control at 140 g/ha: rate 140 g ae/ha; for pest or weed control at 280 g/ha: rate 280 g ae/ha. In a few lines: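 Test compounds at 140 or 280 g ae/ha were applied by track sprayer (187 L/ha, spray solution containing acetone/DMSO, isopropanol, crop oil, surfactant) to 2–8 leaf plants, 3–4 replicates. Plants were kept in a greenhouse at 25–28 °C. Size reduction was scored against untreated controls at 21 days.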

Another series concerns Kochia scoparia (KCHSC). The series is described as above. To be noted: KCHSC, postemergence; for pest or weed control at 140 g/ha / pest or weed control at 280 g/ha: Bassia scoparia, post-emergence, 504 h, read-out: Control/Injury; for pest or weed control at 280 g/ha: rate 280 g ae/ha. The format is in vivo. The method in brief: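 Values are percent reduction in plant size against an untreated control, measured 21 days after a single postemergence spray at 140 or 280 g ae/ha (187 L/ha, 276 kPa). Treatments used 3-4 randomized complete-block replicates on 2 to 8 leaf-stage plants kept in a 25-28 °C greenhouse, with compounds in acetone/DMSO-based solvent containing crop oil and surfactant.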

The test system of series [4] is Amaranthus palmeri (AMAPA). The description is as above. The series is classed as in vivo, Amaranthus palmeri (Palmer amaranth). To be noted: post-emergence, 504 h, postemergence, read-out: Control/Injury; for pest or weed control at 140 g/ha: rate 140 g ae/ha; for pest or weed control at 280 g/ha: rate 280 g ae/ha. In a few lines:
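Percent reduction in plant size relative to untreated plants, measured 21 days after track-sprayer application (187 L/ha) of 140 or 280 g ae/ha to Amaranthus palmeri at the 2 to 8 leaf stage. Randomized complete block, 3 or 4 replicates, greenhouse at 25 to 28° C; spray solution acetone/DMSO with isopropanol, water and crop oil concentrate.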

A further series concerns Amaranthus rudis (AMATA). Described as above. The series is classed as in vivo, Amaranthus rudis (tall water hemp). To be noted: Amaranthus tuberculatus, post-emergence, 504 h, AMATA, postemergence, read-out: Control/Injury; for pest or weed control at 140 g/ha: rate 140 g ae/ha; for pest or weed control at 280 g/ha: rate 280 g ae/ha. The method in brief:
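Growth-reduction values are percent decrease in plant size relative to untreated plants, scored 21 days post-application. Amaranthus rudis (2-8 leaves) received postemergence sprays at 140 or 280 g ae/ha, 187 L/ha, in a mixed acetone/DMSO/water/isopropanol carrier with crop oil concentrate. Greenhouse conditions were 25-28° C, 50-60% RH; 3-4 randomized replicates.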

The mark [5] stands for this setting: percent reduction vs untreated control, 21 days after treatment.
[6] abbreviates: R-AMAPA, percent reduction vs untreated control, 21 days after treatment.
Where [7] appears, read: rate 140 g ae/ha, percent reduction vs untreated, 21 days after treatment.
Where [8] appears, read: percent reduction vs untreated, 21 days after treatment.

Each structure is given as a SMILES string. Like-named read-outs stand apart in the source and are kept apart here.

`COc1c(Cl)ccc(Cl)c1C(=O)O/N=C(\N)c1cncnc1` [Compound A-35]: the Volatility in series [1] is on record as 0.022 ng/min. In addition, in series [2] (setting [5]), the pest or weed control at 140 g/ha came out at 96% and the pest or weed control at 280 g/ha turned out to be 99%.
On the same counts, the results for `COc1c(Cl)ccc(Cl)c1C(=O)O/N=C(\N)c1cccs1` [Compound A-36] are 0.417 ng/min, 83% and 98%.
On the same counts, the results for `COc1c(Cl)ccc(Cl)c1C(=O)O/N=C(\N)c1ccsc1` [Compound A-37] are 0.145 ng/min, 87% and 96%.
On the same counts, the results for `COc1c(Cl)ccc(Cl)c1C(=O)O/N=C(\N)c1ccco1` [Compound A-38] are 0.46 ng/min, 89% and 97%.
In the case of `COc1c(Cl)ccc(Cl)c1C(=O)O/N=C(\C)c1ccccc1` [Compound A-46], in series [1], the Volatility was 0.1 ng/min. Moreover, the pest or weed control at 140 g/ha worked out at 85% in series [3], 99% in the series with Kochia scoparia (KCHSC) (rate 140 g ae/ha) and 85% in series [4] (setting [6]). Besides, the results for the pest or weed control at 280 g/ha (in series [3]; with Kochia scoparia (KCHSC); in series [4] (setting [6])) were 82%, 100% and 80%, respectively.
`COc1c(Cl)ccc(Cl)c1C(=O)O/N=C(\N)C(C)C` [Compound A-48]: the Volatility in series [1] is 0.38 ng/min. In addition, the pest or weed control at 140 g/ha came out at 60% in the series on Amaranthus rudis (AMATA), 85% in series [3], 90% in the series on Kochia scoparia (KCHSC) (rate 140 g ae/ha) and 90% in series [4] (setting [6]). The pest or weed control at 280 g/ha in the series with Amaranthus rudis (AMATA) came to 90%; in series [3], 100%; in the series on Kochia scoparia (KCHSC) it was 100%; in series [4] (setting [6]), 99%.
In the case of `COc1c(Cl)ccc(Cl)c1C(=O)O/N=C(\N)c1ccccc1` [Compound A-49], in series [1], the Volatility is given as 0.08 ng/min. The pest or weed control at 140 g/ha in series [3] stood at 98%; with Kochia scoparia (KCHSC) (rate 140 g ae/ha), 82%; in series [4] (setting [6]), 95%; in series [2] (setting [5]), 95%. In addition, the pest or weed control at 280 g/ha in series [3] came to 99%; in the series with Kochia scoparia (KCHSC), 100%; in series [4] (setting [6]), 100%; in series [2] (setting [5]), 98%.
For `COc1c(Cl)ccc(Cl)c1C(=O)O/N=C(\N)c1cccnc1` [Compound A-50], in series [1], the Volatility is recorded as 0.09 ng/min. The pest or weed control at 140 g/ha stood at 95% in the series with Amaranthus rudis (AMATA), 90% in series [3], 99% in the series with Kochia scoparia (KCHSC) (rate 140 g ae/ha) and 95% in series [4] (setting [6]). For the same compound, the pest or weed control at 280 g/ha in the series on Amaranthus rudis (AMATA) was 97%; in series [3], 100%; with Kochia scoparia (KCHSC) it was 99%; in series [4] (setting [6]), 99%.
Regarding `COc1c(Cl)ccc(Cl)c1C(=O)OCOC(=O)c1ccccc1` [Compound A-51], the Volatility in series [1] is given as 0.25 ng/min. Further, the pest or weed control at 140 g/ha stood at 90% in series [3], 92% in the series on Kochia scoparia (KCHSC) (rate 140 g ae/ha) and 95% in series [4] (setting [6]). The pest or weed control at 280 g/ha came to 95% in series [3], 99% with Kochia scoparia (KCHSC) and 95% in series [4] (setting [6]).
Regarding `COc1c(Cl)ccc(Cl)c1C(=O)OCOC(=O)c1c(Cl)ccc(Cl)c1OC` [Compound A-53], the Volatility in series [1] is 0.19 ng/min. Besides, the results for the pest or weed control at 140 g/ha (in series [3]; in the series with Kochia scoparia (KCHSC) (rate 140 g ae/ha); in series [4] (setting [6])) were 60%, 85% and 70%, respectively. Further, the pest or weed control at 280 g/ha in series [3] was found to be 70%; in the series with Kochia scoparia (KCHSC), 90%; in series [4] (setting [6]), 98%. In the series with Kochia scoparia (KCHSC) (rate 140 g ae/ha), this compound returned a Control/Injury of 85.
As to `COc1c(Cl)ccc(Cl)c1C(=O)OCCOCCOC(=O)c1c(Cl)ccc(Cl)c1OC` [Compound A-55], the Volatility in series [1] is 0.24 ng/min. In series [3], the pest or weed control at 140 g/ha came out at 25%. In addition, the pest or weed control at 280 g/ha in the series with Kochia scoparia (KCHSC) worked out at 15%.
With `COc1c(Cl)ccc(Cl)c1C(=O)O/N=C(\N)CC(C)C` [Compound A-59], in series [1], the Volatility is on record as 0.086 ng/min. Besides, in series [2] (setting [5]), the pest or weed control at 140 g/ha came out at 94% and the pest or weed control at 280 g/ha was determined as 99%.
As to `COc1c(Cl)ccc(Cl)c1C(=O)NOCc1ccccc1` [Compound A-98], in series [1], the Volatility is on record as 0.08 ng/min. Moreover, the pest or weed control at 140 g/ha was 18% in the series with Amaranthus rudis (AMATA); 20% in series [3]; 8% with Kochia scoparia (KCHSC) (setting [7]); 23% in series [4] (AMAPA); 2% in series [2]. In addition, the pest or weed control at 280 g/ha in the series on Amaranthus rudis (AMATA) came to 13%; in series [3], 15%; in the series with Kochia scoparia (KCHSC) (setting [8]), 0%; in series [4] (AMAPA), 20%; in series [2], 3%.
For `COc1c(Cl)ccc(Cl)c1C(=O)Oc1cc2ccccc2n1C` [Compound A-117], the Volatility in series [1] is recorded as 0.04 ng/min. Moreover, the pest or weed control at 140 g/ha in the series with Amaranthus rudis (AMATA) was 85%; in series [3], 90%; with Kochia scoparia (KCHSC) (setting [7]) it was 80%; in series [4] (AMAPA), 83%; in series [2] (setting [8]) it was 98%. Further, the pest or weed control at 280 g/ha with Amaranthus rudis (AMATA) worked out at 85%; in series [3] it was 97%; in the series on Kochia scoparia (KCHSC) (setting [8]) it was 98%; in series [4] (AMAPA), 89%; in series [2] (setting [8]), 95%.
Turning to `COc1c(Cl)ccc(Cl)c1C(=O)O/N=C(\N)c1ccccc1` [Compound A-150], the Volatility in series [1] was 0.08 ng/min. For the same compound, the pest or weed control at 140 g/ha is 88% in the series on Kochia scoparia (KCHSC) (setting [7]), 80% in series [4] (AMAPA), 98% in series [2] and 95% in series [2] (setting [8]). For the same compound, the pest or weed control at 280 g/ha in the series on Kochia scoparia (KCHSC) (setting [8]) worked out at 99%; in series [4] (AMAPA), 78%; in series [2], 97%; in series [2] (setting [8]), 98%.

The values above are taken from patent publication US20240122179A1, “AUXINIC HERBICIDES AND METHODS OF USE THEREOF” (CORTEVA AGRISCIENCE LLC, priority 2021, published 2024).
